Data published in patent US5952307A, “Basic α-aminoalkylphosphonate derivatives” (priority 1997, dated 1999).

Experiments:
Type in all cases: biochemical
[1] = molecular target: mast cell tryptase (Homo sapiens, UniProt Q15661); test: Inactivation rate of mast cell tryptase, incubation method; details: for kobsd /[I] mast cell tryptase: 0.1M Hepes, 10% glycerol, 10 mM heparin, pH 7.5, 25° C., 7.1% DMSO, NI = no inhibition after 25 min of incubation; for kobs /[I] mast cell tryptase: 0.07 μM tryptase, 20-66 μM inhibitor, Hepes pH 7.5, heparin, 9% glycerol, 8% DMSO, 25° C., NI = no inhibition
In short: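 Incubation method at 25 °C: 0.07 μM tryptase with 20–66 μM inhibitor in Hepes pH 7.5 containing heparin, glycerol and DMSO. Aliquots were withdrawn at intervals for residual activity on Z-Arg-SBzl or Z-Lys-SBzl with DTNB. Pseudo-first-order kobs came from ln(vt/v0) versus time.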

[2] = molecular target: T1, human thrombin (Homo sapiens, UniProt P00734); details: Table II; 0.07 μM thrombin, 0.25-42 μM inhibitor, 80 mM Hepes pH 7.5, 428 mM NaCl, 8% DMSO, 25° C.; NI = no inhibition
T1 construct: bovine trypsin, human thrombin
In short: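 Irreversible inactivation followed by incubation method at 25 °C: 0.07 μM thrombin with 0.25–42 μM inhibitor in 80 mM Hepes pH 7.5, 428 mM NaCl, 8% DMSO. Residual activity of withdrawn aliquots measured with thioester or 4-nitroanilide substrates; kobs from pseudo-first-order fits.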

[3] = molecular target: T2, bovine trypsin (Bos taurus, UniProt P00760); test: Inactivation rate of bovine trypsin, incubation method; details: for kobsd /[I] bovine trypsin: Table I, 0.1M Hepes, 0.01M CaCl2 pH 7.5, 25° C., 2% DMSO, substrate Z--Arg--SBzl, NI = no inhibition after 25 min; for kobs /[I] bovine trypsin: Table II, 0.13 μM trypsin, 0.25-42 μM inhibitor, 80 mM Hepes pH 7.5, 1 mM CaCl2, 8% DMSO, 25° C., NI = no inhibition
T2 sequence (P00760 24-246): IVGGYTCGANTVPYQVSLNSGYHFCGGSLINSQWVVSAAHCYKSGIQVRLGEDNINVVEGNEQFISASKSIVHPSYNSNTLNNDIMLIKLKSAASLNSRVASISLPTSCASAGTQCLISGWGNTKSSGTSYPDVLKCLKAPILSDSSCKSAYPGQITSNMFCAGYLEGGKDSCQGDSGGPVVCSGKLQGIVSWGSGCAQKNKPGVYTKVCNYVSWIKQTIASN
In short: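 Incubation method: trypsin pre-incubated with inhibitor (0.25-42 μM) at 25° C in 80 mM Hepes, 1 mM CaCl2, pH 7.5, 8% DMSO; aliquots withdrawn over time for residual activity on Z-Arg-SBzl thioester with DTNB or 4,4'-dithiodipyridine. Pseudo-first-order kobs from ln vt/vo versus time.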

[4] = system: rat granzyme A; test: Inactivation rate of rat granzyme A, incubation method; details: Table I; 0.1M Hepes, 0.01M CaCl2 pH 7.5, 25° C., 7.6% DMSO, substrate Z--Arg--SBzl
Method: (§1) Inactivation rates of serine proteases by aryl diesters of peptidyl derivatives of α-aminoalkylphosphonates were measured by the incubation method. An aliquot of inhibitor (25 or 50 μl) in Me2 SO was added to a buffered enzyme solution (0.01-2.3 μM) to initiate the inactivation. Aliquots (50 μl) were withdrawn at various intervals and the residual enzymatic activity was measured. Me2 SO concentration in the reaction mixture was 8-12% (v/v). A 0.1 M HEPES, 0.01 M CaCl2, pH 7.5 buffer was utilized for trypsin and trypsin-like enzymes. A 0.1 M HEPES, 0.5 M NaCl, pH 7.5, was utilized for the other serine proteases. Peptide thioesters or peptide nitroanilides with the appropriate sequences were used as substrates for various serine proteases. All peptide thioesters hydrolysis rates were measured with the assay mixture containing 4,4'-dithiodipyridine {ε324 =19800 M^-1 cm^-1; Grasetti & Murray, Arch. Biochem. Biophys. 1967, 119, 41-48}. Peptide 4-nitroanilide hydrolysis was measured at 410 nm {ε410 =8800 M^-1 cm^-1; Erlanger et al., Arch. Biochem. Biophys. 1961, 95, 271-278}. First order inactivation rate constants (Kobs) were obtained from plots of In vt /vo vs time, and the correlation coefficients were greater then 0.98.
(§2) ^a Inhibition constants were measured in 0.1M Hepes, 0.01M CaCl2
(§3) pH 7.5 for trypsin, granzymes A, and K, and in 0.1M Hepes, 10% glycerol,
(§4) 10 mM heparin, pH 7.5 for mast cell tryptase, and at 25° C. The
(§5) reaction mixtures contained 2% DMSO for trypsin, 7.6% for granzyme A, and
(§6) 7.1% for granzyme K and tryptase. The substrate was Z--Arg--SBzl for
(§7) granzymes and trypsin, and Z--Arg--SBzl or Z--Lys--SBzl for tryptase in
(§8) the presence of DTNB. The inhibitor # concentration ranged from 0.001 to
(§9) ^b NI, no inhibition after 25 min of incubation with enzyme.

[5] = molecular target: T3, rat granzyme K (Rattus norvegicus, UniProt P49864); test: Inactivation rate of rat granzyme K, incubation method; details: Table I; 0.1M Hepes, 0.01M CaCl2 pH 7.5, 25° C., 7.1% DMSO, substrate Z--Arg--SBzl; NI = no inhibition after 25 min of incubation
T3 sequence (P49864 26-258): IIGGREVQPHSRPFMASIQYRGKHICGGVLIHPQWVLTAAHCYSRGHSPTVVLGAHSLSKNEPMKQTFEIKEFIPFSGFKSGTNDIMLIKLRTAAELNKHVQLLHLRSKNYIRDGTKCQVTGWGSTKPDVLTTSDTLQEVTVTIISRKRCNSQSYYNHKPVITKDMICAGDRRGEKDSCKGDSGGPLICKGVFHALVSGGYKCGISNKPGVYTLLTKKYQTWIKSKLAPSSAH
Method: as §1, §2, §3, §4, §5, §6, §7, §8, §9

[6] = molecular target: T4, human granzyme A (Homo sapiens, UniProt P12544); test: Inactivation rate of human granzyme A, incubation method; details: Table I; 0.1M Hepes, 0.01M CaCl2 pH 7.5, 25° C., 7.6% DMSO, substrate Z--Arg--SBzl
T4 sequence (P12544 29-262): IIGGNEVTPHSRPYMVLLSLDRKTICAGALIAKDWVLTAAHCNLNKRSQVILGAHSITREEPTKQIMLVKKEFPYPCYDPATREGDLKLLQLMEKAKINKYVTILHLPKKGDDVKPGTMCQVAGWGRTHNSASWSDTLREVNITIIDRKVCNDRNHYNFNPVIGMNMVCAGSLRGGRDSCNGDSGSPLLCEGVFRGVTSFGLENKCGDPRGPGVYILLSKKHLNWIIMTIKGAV
In short: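 Inhibitor in DMSO added to enzyme (0.01-2.3 μM) in 0.1 M HEPES, 0.01 M CaCl2, pH 7.5, 25° C (DMSO 7.6% for granzyme A, 7.1% for granzyme K); residual activity on Z-Arg-SBzl with DTNB read at intervals. Kobs from ln vt/vo vs time plots.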

mast cell tryptase, sequence (Q15661 31-275): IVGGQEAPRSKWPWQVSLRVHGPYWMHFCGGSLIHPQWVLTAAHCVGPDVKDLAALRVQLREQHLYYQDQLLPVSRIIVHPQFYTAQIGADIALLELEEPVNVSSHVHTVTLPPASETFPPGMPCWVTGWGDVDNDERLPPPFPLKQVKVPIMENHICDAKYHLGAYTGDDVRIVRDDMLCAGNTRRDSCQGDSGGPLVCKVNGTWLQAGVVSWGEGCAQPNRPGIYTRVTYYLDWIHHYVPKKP

Compound	% Inh mast cell tryptase ([1]; Table I, printed in the kobsd/[I] column) [%]	% Inh mast cell tryptase ([1]; Table II, printed in the kobs/[I] column) [%]	kobs /[I] human thrombin [2]	kobsd /[I] bovine trypsin [3] [M⁻¹ s⁻¹]	kobs /[I] bovine trypsin [3]	kobsd /[I] rat granzyme A [4] [M⁻¹ s⁻¹]	kobsd /[I] rat granzyme K [5] [M⁻¹ s⁻¹]	kobsd /[I] human granzyme A [6] [M⁻¹ s⁻¹]	kobsd /[I] mast cell tryptase ([1]; Table I) [M⁻¹ s⁻¹]	kobs /[I] mast cell tryptase ([1]; Table II) [M⁻¹ s⁻¹]
N=C(N)c1ccc(C(NC(=O)C(Cc2ccccc2)NC(=O)OCc2ccccc2)P(=O)(Oc2ccccc2)Oc2ccccc2)cc1 (mixture of isomers) [Cbz--Phe-(4-AmPhGly)^P (OPh)2]	5	5	20 ± 1 M⁻¹ s⁻¹	17 ± 1	17 ± 1 M⁻¹ s⁻¹	8	13	14 ± 1		
Cl.N=C(N)c1ccc(C(NC(=O)C=Cc2ccco2)P(=O)(Oc2ccccc2)Oc2ccccc2)cc1 (stereo not shown) [(2-Furyl)acryloyl-(4-AmPhGly)^P (OPh)2, Diphenyl N-(3-(2-Furyl)acryloyl)amino(4-amidinophenyl)methanephosphonate Hydrochloride]			15 ± 1 M⁻¹ s⁻¹	360 ± 28	360 ± 28 M⁻¹ s⁻¹	1740 ± 237	32	1740 ± 41		
Cl.N=C(N)c1ccc(C(NC(=O)c2ccccc2Oc2ccccc2)P(=O)(Oc2ccccc2)Oc2ccccc2)cc1 (stereo not shown) [2-Phenoxybenzoyl-(4-AmPhGly)^P (OPh)2, Diphenyl N-(2-Phenoxybenzoyl)amino(4-amidinophenyl)methanephosphonate Hydrochloride]			270 ± 20 M⁻¹ s⁻¹	670 ± 53	670 ± 53 M⁻¹ s⁻¹	340 ± 1	1	540 ± 3	0.4	0.4
N=C(N)c1ccc(C(NC(=O)C(CCCCN)NC(=O)OCc2ccccc2)P(=O)(Oc2ccccc2)Oc2ccccc2)cc1 (mixture of isomers) [Cbz--Lys-(4-AmPhGly)^P (OPh)2]			88 ± 2 M⁻¹ s⁻¹	30 ± 1	30 ± 1 M⁻¹ s⁻¹	15 ± 1	1	30 ± 1		
Cl.N=C(N)c1ccc(C(NC(=O)/C=C/c2ccccc2)P(=O)(Oc2ccccc2)Oc2ccccc2)cc1 (stereo not drawn) [trans-Cinnamoyl-(4-AmPhGly)^P (OPh)2, Diphenyl N-(trans-Cinnamoyl)amino(4-amidinophenyl)methanephosphonate Hydrochloride]			20 ± 1 M⁻¹ s⁻¹	110 ± 1	110 ± 1 M⁻¹ s⁻¹	340 ± 18	3	400 ± 10	0.3	0.3
C[C@H](NC(=O)OCc1ccccc1)C(=O)N[C@@H](C)C(=O)NC(c1ccc(C(=N)N)cc1)P(=O)(Oc1ccccc1)Oc1ccccc1 (stereo partly shown) [Cbz--Ala--Ala-(4-AmPhGly)^P (OPh)2]			3,030 ± 222 M^-1 s^-1	3620 ± 588	3,620 ± 588 M^-1 s^-1	480 ± 27	5	820 ± 29	2	2 ± 0
Cl.N=C(N)c1ccc(C(NC(=O)/C=C/c2cccnc2)P(=O)(Oc2ccccc2)Oc2ccccc2)cc1 (stereo not drawn) [Diphenyl N-(trans-3-(3-Pyridyl)acryloyl)amino(4-amidinophenyl)methanephosphonate Hydrochloride]			2 M⁻¹ s⁻¹			1	3	5		
CC(NC(=O)OCc1ccccc1)C(=O)NC(c1ccc(C(=N)N)cc1)P(=O)(Oc1ccccc1)Oc1ccccc1 (mixture of isomers) [Cbz--Ala-(4-AmPhGly)^P (OPh)2]			750 ± 18 M⁻¹ s⁻¹	1850 ± 85	1,850 ± 85 M^-1 s^-1	1270 ± 85		1670 ± 11	0.8	0.8
N=C(N)c1ccc(C(NC(=O)Oc2cccc3ccccc23)P(=O)(Oc2ccccc2)Oc2ccccc2)cc1 (stereo not shown) [1-Naphthyloxycarbonyl-(4-AmPhGly)^P (OPh)2]			30 ± 2 M⁻¹ s⁻¹	30 ± 1	30 ± 1 M⁻¹ s⁻¹	90 ± 9	12	160 ± 2		
Cl.N=C(N)c1ccc(C(NC(=O)c2cccc(Oc3ccccc3)c2)P(=O)(Oc2ccccc2)Oc2ccccc2)cc1 (stereo not shown) [3-Phenoxybenzoyl-(4-AmPhGly)^P (OPh)2, Diphenyl N-(3-Phenoxybenzoyl)amino(4-amidinophenyl)methanephosphonate Hydrochloride]			200 ± 8 M⁻¹ s⁻¹	50 ± 2	50 ± 2 M⁻¹ s⁻¹	470 ± 14	1	340 ± 53		
